{"source": "patent US11058117B2", "about": "“Benzoxaborole compounds” (BASF SE, priority 2017, dated 2021)", "key": {"[1]": {"system": "Abutilon theophrasti", "assay": "greenhouse post-emergence herbicidal test", "assay_type": "in vivo", "conditions": "scale 0 to 100", "experimental": "(§1) The culture containers used were plastic flowerpots containing loamy sand with approximately 3.0% of humus as the substrate. The seeds of the test plants were sown separately for each species.\n(§2) For this purpose, the test plants were either sown directly and grown in the same containers, or they were first grown separately as seedlings and transplanted into the test containers a few days prior to treatment.\n(§3) Depending on the species, the plants were kept at 10-25° C. or 20-35° C., respectively.\n(§4) The test period extended over 2 to 4 weeks. During this time, the plants were tended, and their response to the individual treatments was evaluated.\n(§5) Evaluation was carried out using a scale from 0 to 100. 100 means no emergence of the plants, or complete destruction of at least the aerial moieties, and 0 means no damage, or normal course of growth. A moderate herbicidal activity is given at values of at least 60, a good herbicidal activity is given at values of at least 70, and a very good herbicidal activity is given at values of at least 85."}, "[2]": {"system": "Amaranthus retroflexus", "assay": "greenhouse post-emergence herbicidal test", "assay_type": "in vivo", "conditions": "scale 0 to 100", "experimental": "as §1, §2, §3, §4, §5"}, "[3]": {"system": "Alopecurus myosuroides", "conditions": "post-emergence, scale 0 to 100", "experimental": "as §1, §2, §3, §4, §5"}, "[4]": {"system": "Amaranthus retroflexus", "conditions": "pre-emergence, application rate 2 kg/ha; scale 0 to 100", "text": "as §1\n(§6) The containers were irrigated gently to promote germination and growth and subsequently covered with transparent plastic hoods until the plants had rooted. This cover caused uniform germination of the test plants, unless this had been impaired by the active ingredients.\nas §3, §4, §5"}, "[5]": {"system": "Setaria viridis", "assay": "greenhouse post-emergence herbicidal test", "assay_type": "in vivo", "conditions": "scale 0 to 100", "experimental": "as §1, §2, §3, §4, §5"}, "[6]": {"system": "Echinocloa crus-galli", "conditions": "post-emergence, application rate 2 kg/ha; scale 0 to 100", "experimental": "as §1, §2, §3, §4, §5"}, "[7]": {"system": "Abutilon theophrasti", "conditions": "pre-emergence, application rate 2 kg/ha; scale 0 to 100", "text": "as §1, §6, §3, §4, §5"}, "[8]": {"system": "Setaria faberi", "conditions": "pre-emergence, application rate 2 kg/ha; scale 0 to 100", "text": "as §1, §6, §3, §4, §5"}, "[9]": {"system": "Avena fatua", "assay": "greenhouse post-emergence herbicidal test", "assay_type": "in vivo", "conditions": "application rate 2 kg/ha, scale 0 to 100", "experimental": "as §1, §2, §3, §4, §5"}, "[10]": {"system": "Sesbania exaltata", "conditions": "post-emergence, application rate 0.25 kg/ha; scale 0 to 100", "experimental": "as §1, §2, §3, §4, §5"}, "[11]": {"system": "Polygonum convolvulus", "conditions": "post-emergence, application rate 0.25 kg/ha; scale 0 to 100", "experimental": "as §1, §2, §3, §4, §5"}}, "note": "Like-named read-outs stand apart in the source and are kept apart here.", "data": [{"smiles": "O=C(O)C1Cc2ccc3c(c2O1)B(O)OC3", "note": "(stereo not drawn) [Compound 6]", "values": [{"measurement": "herbicidal activity against Abutilon theophrasti", "setting": "[1]; application rate 2 kg/ha", "value": 100, "unit": "%"}, {"measurement": "herbicidal activity against Amaranthus retroflexus", "setting": "[2]; application rate 2 kg/ha", "value": 100, "unit": "%"}, {"measurement": "herbicidal activity against Alopecurus myosuroides", "setting": "[3]; application rate 2 kg/ha", "value": 98, "unit": "%"}, {"measurement": "herbicidal activity against Amaranthus retroflexus", "setting": "[4]", "value": 80, "unit": "%"}]}, {"smiles": "CCOC(=O)C1COc2c(ccc3c2B(O)OC3)O1", "note": "(stereo not drawn) [Compound 16]", "values": [{"measurement": "herbicidal activity against Amaranthus retroflexus", "setting": "[2]; application rate 2 kg/ha", "value": 100, "unit": "%"}]}, {"smiles": "COC(=O)C1Cc2ccc3c(c2O1)B(O)OC3", "note": "(stereo not drawn) [Compound 5]", "values": [{"measurement": "herbicidal activity against Amaranthus retroflexus", "setting": "[2]; application rate 2 kg/ha", "value": 100, "unit": "%"}, {"measurement": "herbicidal activity against Setaria viridis", "setting": "[5]; application rate 2 kg/ha", "value": 100, "unit": "%"}, {"measurement": "herbicidal activity against Echinocloa crus-galli", "setting": "[6]", "value": 100, "unit": "%"}, {"measurement": "herbicidal activity against Abutilon theophrasti", "setting": "[7]", "value": 80, "unit": "%"}, {"measurement": "herbicidal activity against Amaranthus retroflexus", "setting": "[4]", "value": 95, "unit": "%"}, {"measurement": "herbicidal activity against Setaria faberi", "setting": "[8]", "value": 85, "unit": "%"}]}, {"smiles": "CCOC(=O)C1COc2ccc3c(c2O1)B(O)OC3", "note": "(stereo not drawn) [Compound 15]", "values": [{"measurement": "herbicidal activity against Abutilon theophrasti", "setting": "[1]; application rate 2 kg/ha", "value": 90, "unit": "%"}, {"measurement": "herbicidal activity against Amaranthus retroflexus", "setting": "[2]; application rate 2 kg/ha", "value": 90, "unit": "%"}]}, {"smiles": "COC(=O)C1Cc2c(C(F)(F)F)cc3c(c2C1)B(O)OC3", "note": "(stereo not drawn) [Compound 19]", "values": [{"measurement": "herbicidal activity against Abutilon theophrasti", "setting": "[1]; application rate 1 kg/ha", "value": 100, "unit": "%"}, {"measurement": "herbicidal activity against Amaranthus retroflexus", "setting": "[2]; application rate 1 kg/ha", "value": 100, "unit": "%"}, {"measurement": "herbicidal activity against Setaria viridis", "setting": "[5]; application rate 1 kg/ha", "value": 90, "unit": "%"}]}, {"smiles": "COC(=O)C1CCc2ccc3c(c2C1)B(O)OC3", "note": "(stereo not drawn) [Compound 20]", "values": [{"measurement": "herbicidal activity against Abutilon theophrasti", "setting": "[1]; application rate 1 kg/ha", "value": 100, "unit": "%"}, {"measurement": "herbicidal activity against Amaranthus retroflexus", "setting": "[2]; application rate 1 kg/ha", "value": 100, "unit": "%"}, {"measurement": "herbicidal activity against Setaria viridis", "setting": "[5]; application rate 1 kg/ha", "value": 100, "unit": "%"}]}, {"smiles": "O=C(O)C1CCc2ccc3c(c2C1)B(O)OC3", "note": "(stereo not drawn) [Compound 21]", "values": [{"measurement": "herbicidal activity against Amaranthus retroflexus", "setting": "[2]; application rate 1 kg/ha", "value": 100, "unit": "%"}, {"measurement": "herbicidal activity against Setaria viridis", "setting": "[5]; application rate 1 kg/ha", "value": 80, "unit": "%"}, {"measurement": "herbicidal activity against Alopecurus myosuroides", "setting": "[3]; application rate 1 kg/ha", "value": 80, "unit": "%"}]}, {"smiles": "COC(=O)C1Cc2c(Cl)cc3c(c2O1)B(O)OC3", "note": "(single isomer, unassigned) [Compound 7]", "values": [{"measurement": "herbicidal activity against Abutilon theophrasti", "setting": "[1]; application rate 2 kg/ha", "value": 100, "unit": "%"}, {"measurement": "herbicidal activity against Amaranthus retroflexus", "setting": "[2]; application rate 2 kg/ha", "value": 100, "unit": "%"}, {"measurement": "herbicidal activity against Avena fatua", "setting": "[9]", "value": 100, "unit": "%"}]}, {"smiles": "COC(=O)C1Cc2ccc3c(c2C1)B(O)OC3", "note": "(stereo not drawn) [Compound 14]", "values": [{"measurement": "herbicidal activity against Abutilon theophrasti", "setting": "[1]; application rate 0.25 kg/ha", "value": 100, "unit": "%"}, {"measurement": "herbicidal activity against Amaranthus retroflexus", "setting": "[2]; application rate 0.25 kg/ha", "value": 100, "unit": "%"}, {"measurement": "herbicidal activity against Sesbania exaltata", "setting": "[10]", "value": 100, "unit": "%"}]}, {"smiles": "COC(=O)C1Cc2c(ccc3c2B(O)OC3)O1", "note": "(stereo not drawn) [Compound 17]", "values": [{"measurement": "herbicidal activity against Amaranthus retroflexus", "setting": "[2]; application rate 2 kg/ha", "value": 100, "unit": "%"}]}, {"smiles": "CCOC(=O)C1Oc2ccc3c(c2O1)B(O)OC3", "note": "(stereo not drawn) [Compound 3, ethyl 1-hydroxy-3H-[1,3]dioxolo[4,5-g][2,1]benzoxaborole-7-carboxylate]", "values": [{"measurement": "herbicidal activity against Amaranthus retroflexus", "setting": "[2]; application rate 2 kg/ha", "value": 100, "unit": "%"}, {"measurement": "herbicidal activity against Setaria viridis", "setting": "[5]; application rate 2 kg/ha", "value": 100, "unit": "%"}]}, {"smiles": "COC(=O)C1Cc2c(c(Cl)cc3c2B(O)OC3C)O1", "note": "(stereo not drawn) [Compound 9, methyl-5-chloro-1-hydroxy-3-methyl-7,8-dihydro-3H-furo[2,3-g][2,1]benzoxaborole-7-carboxylate]", "values": [{"measurement": "herbicidal activity against Abutilon theophrasti", "setting": "[1]; application rate 2 kg/ha", "value": 100, "unit": "%"}, {"measurement": "herbicidal activity against Amaranthus retroflexus", "setting": "[2]; application rate 2 kg/ha", "value": 100, "unit": "%"}, {"measurement": "herbicidal activity against Avena fatua", "setting": "[9]", "value": 98, "unit": "%"}]}, {"smiles": "O=C(O)C1Oc2ccc3c(c2O1)B(O)OC3", "note": "(stereo not drawn) [Compound 2, 1-hydroxy-3H-[1,3]dioxolo[4,5-g][2,1]benzoxaborole-7-carboxylic acid]", "values": [{"measurement": "herbicidal activity against Abutilon theophrasti", "setting": "[1]; application rate 2 kg/ha", "value": 90, "unit": "%"}, {"measurement": "herbicidal activity against Amaranthus retroflexus", "setting": "[2]; application rate 2 kg/ha", "value": 100, "unit": "%"}, {"measurement": "herbicidal activity against Setaria viridis", "setting": "[5]; application rate 2 kg/ha", "value": 80, "unit": "%"}]}, {"smiles": "COC(=O)C1Cc2c(F)cc3c(c2O1)B(O)OC3", "note": "(stereo not drawn) [Compound 12]", "values": [{"measurement": "herbicidal activity against Amaranthus retroflexus", "setting": "[2]; application rate 0.25 kg/ha", "value": 100, "unit": "%"}, {"measurement": "herbicidal activity against Polygonum convolvulus", "setting": "[11]", "value": 95, "unit": "%"}, {"measurement": "herbicidal activity against Sesbania exaltata", "setting": "[10]", "value": 100, "unit": "%"}]}, {"smiles": "COC(=O)C1Oc2ccc3c(c2O1)B(O)OC3", "note": "(stereo not drawn) [Compound 4]", "values": [{"measurement": "herbicidal activity against Abutilon theophrasti", "setting": "[1]; application rate 2 kg/ha", "value": 100, "unit": "%"}, {"measurement": "herbicidal activity against Amaranthus retroflexus", "setting": "[2]; application rate 2 kg/ha", "value": 100, "unit": "%"}]}, {"smiles": "O=C(O)C1Cc2c(C(F)(F)F)cc3c(c2C1)B(O)OC3", "note": "(stereo not drawn) [Compound 22]", "values": [{"measurement": "herbicidal activity against Abutilon theophrasti", "setting": "[1]; application rate 1 kg/ha", "value": 100, "unit": "%"}, {"measurement": "herbicidal activity against Amaranthus retroflexus", "setting": "[2]; application rate 1 kg/ha", "value": 100, "unit": "%"}, {"measurement": "herbicidal activity against Alopecurus myosuroides", "setting": "[3]; application rate 1 kg/ha", "value": 95, "unit": "%"}]}, {"smiles": "O=C(O)C1Cc2c(F)cc3c(c2O1)B(O)OC3", "note": "(stereo not drawn) [Compound 13]", "values": [{"measurement": "herbicidal activity against Amaranthus retroflexus", "setting": "[2]; application rate 0.25 kg/ha", "value": 100, "unit": "%"}, {"measurement": "herbicidal activity against Polygonum convolvulus", "setting": "[11]", "value": 85, "unit": "%"}, {"measurement": "herbicidal activity against Sesbania exaltata", "setting": "[10]", "value": 100, "unit": "%"}]}, {"smiles": "COC(=O)C1Cc2c(Cl)cc3c(c2O1)B(O)OC3", "note": "(single isomer, unassigned) [Compound 8]", "values": [{"measurement": "herbicidal activity against Amaranthus retroflexus", "setting": "[2]; application rate 2 kg/ha", "value": 100, "unit": "%"}, {"measurement": "herbicidal activity against Setaria viridis", "setting": "[5]; application rate 2 kg/ha", "value": 100, "unit": "%"}, {"measurement": "herbicidal activity against Echinocloa crus-galli", "setting": "[6]", "value": 100, "unit": "%"}, {"measurement": "herbicidal activity against Setaria faberi", "setting": "[8]", "value": 80, "unit": "%"}]}, {"smiles": "O=C(O)C1Cc2c(ccc3c2B(O)OC3)O1", "note": "(stereo not drawn) [Compound 18]", "values": [{"measurement": "herbicidal activity against Amaranthus retroflexus", "setting": "[2]; application rate 1 kg/ha", "value": 100, "unit": "%"}, {"measurement": "herbicidal activity against Setaria viridis", "setting": "[5]; application rate 1 kg/ha", "value": 90, "unit": "%"}]}]}
